Laboratory results taken from paper PMC11464771, “Elucidation of Spartina dimethylsulfoniopropionate synthesis genes enables engineering of stress tolerant plants” (Nature Communications, 2024).

T1: MMT from Hordeum vulgare (Hordeum vulgare, UniProt Q9MBC2)
T1 construct: gene MMT1; recombinant, probably pMALc2x (MBP fusion), E. coli
T1 sequence (Q9MBC2 1-1088): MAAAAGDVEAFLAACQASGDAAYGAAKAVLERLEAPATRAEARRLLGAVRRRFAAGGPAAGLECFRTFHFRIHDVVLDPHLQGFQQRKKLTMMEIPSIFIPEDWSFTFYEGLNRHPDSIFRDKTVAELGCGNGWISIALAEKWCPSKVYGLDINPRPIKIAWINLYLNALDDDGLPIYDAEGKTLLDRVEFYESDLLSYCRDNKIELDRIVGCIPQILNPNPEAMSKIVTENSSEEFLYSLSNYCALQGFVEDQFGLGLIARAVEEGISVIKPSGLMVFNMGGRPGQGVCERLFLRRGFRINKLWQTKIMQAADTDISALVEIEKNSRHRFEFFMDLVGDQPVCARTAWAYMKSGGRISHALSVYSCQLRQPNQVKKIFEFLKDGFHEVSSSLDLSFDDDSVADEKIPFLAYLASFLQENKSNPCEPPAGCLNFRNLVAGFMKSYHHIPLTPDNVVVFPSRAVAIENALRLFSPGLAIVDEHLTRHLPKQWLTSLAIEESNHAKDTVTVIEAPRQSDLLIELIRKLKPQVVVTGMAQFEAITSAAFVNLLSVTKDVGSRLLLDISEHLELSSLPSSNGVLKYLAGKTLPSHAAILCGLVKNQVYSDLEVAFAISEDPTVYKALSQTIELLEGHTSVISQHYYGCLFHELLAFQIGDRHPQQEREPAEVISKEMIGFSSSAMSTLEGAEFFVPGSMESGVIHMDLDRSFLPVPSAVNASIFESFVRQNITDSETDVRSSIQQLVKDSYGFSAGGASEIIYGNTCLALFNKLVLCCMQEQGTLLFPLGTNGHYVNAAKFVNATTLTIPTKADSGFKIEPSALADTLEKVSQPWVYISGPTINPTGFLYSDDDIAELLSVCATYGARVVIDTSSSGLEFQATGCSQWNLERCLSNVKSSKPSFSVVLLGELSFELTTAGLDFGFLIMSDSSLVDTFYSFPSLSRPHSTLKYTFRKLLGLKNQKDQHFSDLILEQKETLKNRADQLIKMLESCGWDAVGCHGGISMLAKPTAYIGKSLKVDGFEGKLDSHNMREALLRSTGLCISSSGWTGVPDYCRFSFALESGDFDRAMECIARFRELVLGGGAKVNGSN

T2: MMT from Arabidopsis thaliana (Arabidopsis thaliana, UniProt Q9LTB2)
T2 construct: gene MMT1; recombinant, probably pMALc2x (MBP fusion), E. coli
T2 sequence (Q9LTB2 2-1071): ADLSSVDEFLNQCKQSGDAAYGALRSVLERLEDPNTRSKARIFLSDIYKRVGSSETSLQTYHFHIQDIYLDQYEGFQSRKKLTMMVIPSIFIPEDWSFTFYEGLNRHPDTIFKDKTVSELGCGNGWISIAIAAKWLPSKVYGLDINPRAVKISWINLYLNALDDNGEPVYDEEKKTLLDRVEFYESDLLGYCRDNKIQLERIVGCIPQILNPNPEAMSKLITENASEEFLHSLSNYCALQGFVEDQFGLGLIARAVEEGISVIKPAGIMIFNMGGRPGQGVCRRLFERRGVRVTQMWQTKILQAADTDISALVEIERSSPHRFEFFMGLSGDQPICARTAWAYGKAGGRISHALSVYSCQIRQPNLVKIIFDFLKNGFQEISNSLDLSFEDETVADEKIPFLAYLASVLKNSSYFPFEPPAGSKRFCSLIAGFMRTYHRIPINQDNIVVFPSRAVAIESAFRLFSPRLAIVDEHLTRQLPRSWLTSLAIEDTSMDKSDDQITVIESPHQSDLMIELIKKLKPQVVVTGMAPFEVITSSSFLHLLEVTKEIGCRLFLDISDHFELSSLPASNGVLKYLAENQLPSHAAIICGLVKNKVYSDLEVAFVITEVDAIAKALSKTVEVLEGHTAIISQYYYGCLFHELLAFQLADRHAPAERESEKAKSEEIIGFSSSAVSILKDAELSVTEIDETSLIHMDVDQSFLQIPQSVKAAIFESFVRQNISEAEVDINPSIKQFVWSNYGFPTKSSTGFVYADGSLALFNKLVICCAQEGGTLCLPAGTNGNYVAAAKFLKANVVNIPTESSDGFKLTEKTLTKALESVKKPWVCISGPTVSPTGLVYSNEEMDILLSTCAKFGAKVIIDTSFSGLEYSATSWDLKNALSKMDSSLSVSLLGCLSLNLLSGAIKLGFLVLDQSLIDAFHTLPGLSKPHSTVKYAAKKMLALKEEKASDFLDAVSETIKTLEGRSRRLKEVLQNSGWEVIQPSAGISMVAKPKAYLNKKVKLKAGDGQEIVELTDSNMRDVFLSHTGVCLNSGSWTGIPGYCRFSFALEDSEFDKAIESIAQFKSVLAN

B1: SaSDC (SaODC), S-methylmethionine decarboxylase (Sporobolus anglicus) (protein)
chain: MVGGSPMPMQAMLVVPGVKDRKVLSFKGDALKENDAIRSITSSTPAQRSAFHVLDLAKVVDLYRAWRRALPNVRPYYAVKCNSEPALLGALAALGAGFDCASHAEIDAVLALGVHPSSIVYANPCKPESHLEHAAAAGVNLTTYDSEEEVAKVRRCHPRCELLLRIKGPDDEEAQCDLGIKYGALADEVVPLLRAAQRAGVPVAGVAFNVGSPASRMDLYRDAIEAARAAFDAAAGLGMPPMRVLDIGGGFTAGATFEEAAAVINDALARHFGDLPYVEVISEPGRYFVKKAITLAARVIGKRTRGEVREYWIDDGVYGSFNCVIMDHYKPRPRPLVTPRPGEAKYTSTVFGPTCDSQDMVVTGYKLPEMSVGDWLVFDDMGAYTTAAGSKFNGFDTSDIKIYLAYST
notes: full-length ORF from transcriptome, synthetic gene, pMALc2x (MBP fusion), E. coli BL21(DE3), amylose resin

Columns and labels:
MMT from Hordeum vulgare = target: T1, MMT from Hordeum vulgare; test: in vitro MMT assay; format: biochemical; settings: 1 mM L-methionine, 1 mM S-adenosylmethionine, Tris-HCl 20 mM pH 7.2, DTT 1 mM, 25 °C
[1] = target: T2, MMT from Arabidopsis thaliana; test: in vitro MMT assay; format: biochemical; settings: 1 mM L-methionine, 1 mM S-adenosylmethionine, Tris-HCl 20 mM pH 7.2, DTT 1 mM, 25 °C
[2] = substrate: C[S+](C)CC[C@H](N)C(=O)O; test: NMR initial rates of DMSP-amine formation; format: biochemical, Sporobolus anglicus; settings: Tris-HCl 20 mM pH 7.2, 0.1 mM pyridoxal 5'-phosphate, 25 °C

| Molecule | in vitro MMT assay (MMT from Hordeum vulgare) | in vitro MMT assay [1] | Km [2] [µM] |
| --- | --- | --- | --- |
| CSCC[C@H](N)C(=O)O [L-methionine] | plant MMTs from Arabidopsis thaliana and Hordeum vulgare | SaMMT1 in vitro activity was comparable to previously characterised plant MMTs from Arabidopsis thaliana | – |
| B1 | – | – | 2130 ± 200 |
